System: genes predictive for the anti-inflammatory macrolide effect
Assay: Genes statistically predictive of Clari response: differentially expressed with Clari but not the inactive macrolides MAA or Josa (Appendix E)
Type: cell-based
Text: In the case of the above-mentioned (i) related to arachidonic acid biosynthesis, specifically, methods of the embodiment involve assaying whether a test macrolide alters biosynthesis of arachidonic acid, alters the expression or activities of enzymes involved in the biosynthesis or activation of arachidonic acid (e.g., arachidonic acid CoA synthetase, delta-6 desaturase, fatty acid elongase, and delta-5 desaturase, AA-related genes in Tables 2 and 3), or alters the expression of genes identified as predictive for the anti-inflammatory macrolide effect (Appendix E). Assays in which arachidonic acid or gene expression or enzymatic activity is detected can be carried out after contacting a cell with a test macrolide. Any cell line that secretes prostaglandin or produces arachidonic acid can be used. Epithelial and macrophages lines (e.g., A549 or THP-1) are suitable for this purpose; other cell lines can be identified by carrying out assays such as those described in the specific Examples, below. Alternatively, screening assays can be carried out after adding a test macrolide to an in vitro cell system (e.g., a cellular extract or liver microsome preparation) or an in vitro enzyme assay system.

SMILES: CO[C@@H]1[C@@H](O[C@@H]2O[C@H](C)[C@@H](O[C@H]3C[C@@](C)(O)[C@@H](OC(=O)CC(C)C)[C@H](C)O3)[C@H](N(C)C)[C@H]2O)[C@@H](CC=O)C[C@@H](C)[C@@H](O)/C=C/C=C/C[C@@H](C)OC(=O)C[C@H]1OC(C)=O [josamycin]
- group mean, gene DDOST (SpotID 49757, MAA and Josa vs. Clari): 0.96
- group mean, gene BCL2L2 (SpotID 49761, MAA and Josa vs. Clari): 0.85
- group mean, gene AD022 (SpotID 49767, MAA and Josa vs. Clari): 0.96
- mean group, AD022 (SpotID 49767, pooled group mean): 0.96
- group mean, gene P4HB (SpotID 49781, MAA and Josa vs. Clari): 0.98
- group mean, gene CYC1 (SpotID 49787, MAA and Josa vs. Clari): 1.09
- mean group, CYC1 (SpotID 49787, pooled group mean): 1.09
- group mean, gene BCL2L2 (SpotID 49794, MAA and Josa vs. Clari): 0.86
- mean group, AD022 (SpotID 49800, pooled group mean): 0.97
- group mean, gene CDKN2C (SpotID 49815, MAA and Josa vs. Clari): 1.06
- group mean, gene CYC1 (SpotID 49820, MAA and Josa vs. Clari): 1.05
- group mean, gene LAMP2 (SpotID 49882, MAA and Josa vs. Clari): 0.99
- group mean, gene ATP2B4 (SpotID 49915, MAA and Josa vs. Clari): 1.23
- mean group, ATP2B4 (SpotID 49915, pooled group mean): 1.23
- group mean, gene DHCR24 (SpotID 49922, MAA and Josa vs. Clari): 1.00
- group mean, gene KIAA0169 (SpotID 49930, MAA and Josa vs. Clari): 1.03
- mean group, RFC1 (SpotID 49947, pooled group mean): 1.05
- group mean, gene CCNE2 (SpotID 49967, MAA and Josa vs. Clari): 1.02
- group mean, gene BMP6 (SpotID 49981, MAA and Josa vs. Clari): 0.94
- group mean, gene VTN (SpotID 49989, MAA and Josa vs. Clari): 1.19
- group mean, gene SRC (SpotID 49990, MAA and Josa vs. Clari): 0.99
- group mean, gene NFYC (SpotID 50011, MAA and Josa vs. Clari): 1.10
- mean group, HIF1A (SpotID 50022, pooled group mean): 1.07
- group mean, gene GNB2L1 (SpotID 50049, MAA and Josa vs. Clari): 1.32
- mean group, NDUFA2 (SpotID 50050, pooled group mean): 0.90
- group mean, gene MBTPS1 (SpotID 50067, MAA and Josa vs. Clari): 0.95
- group mean, gene SCOP (SpotID 50079, MAA and Josa vs. Clari): 0.97
- mean group, SCOP (SpotID 50079, pooled group mean): 0.97
- group mean, gene IDI1 (SpotID 50084, MAA and Josa vs. Clari): 0.90
- group mean, SpotID 50085 (gene symbol not given) (SpotID 50085, MAA and Josa vs. Clari): 1.18
- group mean, gene CNOT3 (SpotID 50099, MAA and Josa vs. Clari): 0.95
- mean group, CNOT3 (SpotID 50099, pooled group mean): 0.95
- group mean, gene IRF5 (SpotID 50103, MAA and Josa vs. Clari): 0.87
- group mean, gene RRBP1 (SpotID 50135, MAA and Josa vs. Clari): 0.95
- group mean, SpotID 50216 (gene symbol not given) (SpotID 50216, MAA and Josa vs. Clari): 0.95
- group mean, gene FLJ13868 (SpotID 50222, MAA and Josa vs. Clari): 0.93
- group mean, gene HK2 (SpotID 50224, MAA and Josa vs. Clari): 0.95
- mean group, IL10RB (SpotID 50267, pooled group mean): 0.98
- group mean, gene UQCR (SpotID 50284, MAA and Josa vs. Clari): 0.83
- group mean, gene TM7SF2 (SpotID 50294, MAA and Josa vs. Clari): 1.01
- group mean, gene CDR2 (SpotID 50302, MAA and Josa vs. Clari): 0.89
- group mean, gene MAX (SpotID 50307, MAA and Josa vs. Clari): 0.96
- group mean, gene BMP6 (SpotID 50319, MAA and Josa vs. Clari): 0.98
- group mean, gene DAD1 (SpotID 50332, MAA and Josa vs. Clari): 1.02
- group mean, gene FGFR2 (SpotID 50337, MAA and Josa vs. Clari): 0.93
- group mean, gene IKKE (SpotID 50342, MAA and Josa vs. Clari): 0.94
- mean group, IKKE (SpotID 50342, pooled group mean): 0.94
- group mean, gene LOC51295 (SpotID 50349, MAA and Josa vs. Clari): 1.01
- mean group, LOC51295 (SpotID 50349, pooled group mean): 1.01
- mean group, CFL1 (SpotID 50351, pooled group mean): 1.16
- group mean, gene TFAM (SpotID 50386, MAA and Josa vs. Clari): 1.05
- group mean, gene DGCR6L (SpotID 50399, MAA and Josa vs. Clari): 1.02
- group mean, gene CHERP (SpotID 50405, MAA and Josa vs. Clari): 1.00
- group mean, gene AGPAT1 (SpotID 50412, MAA and Josa vs. Clari): 0.99
- mean group, GOCAP1 (SpotID 50421, pooled group mean): 1.01
- group mean, gene SIGIRR (SpotID 50452, MAA and Josa vs. Clari): 0.96
- group mean, gene MMP15 (SpotID 50464, MAA and Josa vs. Clari): 0.87
- group mean, gene CEBPA (SpotID 50474, MAA and Josa vs. Clari): 0.97
- mean group, MGP (SpotID 50511, pooled group mean): 0.83
- group mean, gene ARHC (SpotID 50513, MAA and Josa vs. Clari): 0.91
- mean group, ARHC (SpotID 50513, pooled group mean): 0.91
- group mean, gene PRKCBP1 (SpotID 50532, MAA and Josa vs. Clari): 1.07
- group mean, gene PTPRT (SpotID 50550, MAA and Josa vs. Clari): 0.92
- mean group, BN51T (SpotID 50584, pooled group mean): 0.97
- mean group, CKS2 (SpotID 50590, pooled group mean): 0.74
- mean group, SpotID 50591 (SpotID 50591 (gene symbol not given), pooled group mean): 1.01
- group mean, SpotID 50591 (gene symbol not given) (SpotID 50591, MAA and Josa vs. Clari): 1.01
- mean group, SRP19 (SpotID 50601, pooled group mean): 0.95
- group mean, gene PDIR (SpotID 50639, MAA and Josa vs. Clari): 0.91
- group mean, gene PROS1 (SpotID 50643, MAA and Josa vs. Clari): 0.93
- mean group, BET1 (SpotID 50645, pooled group mean): 0.84
- group mean, gene COPB2 (SpotID 50654, MAA and Josa vs. Clari): 0.99
- group mean, gene MAX (SpotID 50659, MAA and Josa vs. Clari): 0.95
- group mean, gene GNB5 (SpotID 50689, MAA and Josa vs. Clari): 1.00
- group mean, gene PRKDC (SpotID 50736, MAA and Josa vs. Clari): 1.07
- mean group, PRKDC (SpotID 50736, pooled group mean): 1.07
- group mean, gene AD022 (SpotID 50738, MAA and Josa vs. Clari): 0.94
- mean group, AD022 (SpotID 50738, pooled group mean): 0.94

Source: US20070172957A1, “Methods of identifying anti-inflammatory macrolides” (TAISHO PHARMACEUTICAL CO., LTD., priority 2004, published 2007)
